Assay results from patent US12186414B2, “Composition and method for endodontic debridement” (priority 2018, dated 2025).

Columns and labels:
[1] = system: dental pulp; settings: cited from earlier work
[2] = Self-assessment of pain before and after endodontic treatment (Control vs Experimental); type: in vivo, patients; settings: for self-assessed pain, 6 hours / self-assessed pain, 24 hours / self-assessed pain, 48 hours / self-assessed pain, 120 hours / self-assessed pain, Before: scale of 1-10; for self-assessed pain, 6 hours: 6 hours following endodontic treatment; for self-assessed pain, 24 hours: 24 hours following endodontic treatment; for self-assessed pain, 48 hours: 48 hours following endodontic treatment; for self-assessed pain, 120 hours: 120 hours following endodontic treatment; for self-assessed pain, Before: prior to endodontic treatment (baseline)
Experimental: Use of TCA during endodontic treatment is associated with decreased incidence of pain following endodontic treatment. Without wishing to be bound by the theory, it is believed that the TCA composition eliminates unmyelinated C fibers in the apical pulp, particularly in mandibular molars. To assess the decreased pain, individuals were asked to provide a self-assessment, on a scale of 1-10, of pain prior to endodontic treatment, and 6, 24, 48, and 120 hours following endodontic treatment. Patients were divided into two groups, one group (Control, N=9) receiving standard endodontic treatment including sodium hypochlorite as the primary irrigant, with occasional (as necessary) flushes with 17% EDTA, and one group (Experimental, N=10) receiving endodontic treatment including the composition described herein as a pre-treatment applied to pulp to facilitate navigating calcified canals and after initial shaping with patency. The experimental group received sodium hypochlorite irrigation and, as necessary, EDTA flushing, as in the control group.

[3] = Experiments with TCA in endodontic treatment including sodium hypochlorite (clinical and radiographic observations); type: in vivo
Source text: FIGS. 7 and 8 show radiographic images from prior to (FIG. 7) and following (FIG. 8) endodontic treatment with a TCA composition as described herein. The image in FIG. 7 is of a tooth that had previously undergone endodontic treatment, but without TCA as a debridement solution.

[4] = cited from earlier work
[5] = endodontic treatment including sodium hypochlorite
[6] = endodontic treatment including sodium hypochlorite, particularly in lower molar cases

## OCl [Control, sodium hypochlorite, reference compound]
[1]; known debridement method
  amount of time that the treatment must be used: 10 min
[1]; strength of 6.25%
  time to dissolve dental pulp: ≥ 10 min
[2]
  self-assessed pain, 6 hours: 1
  self-assessed pain, 24 hours: 0.89
  self-assessed pain, 48 hours: 1.44
  self-assessed pain, 120 hours: 0.56
  self-assessed pain, Before: 2.67

## O=C(O)C(Cl)(Cl)Cl [TCA, trichloroacetic acid]
[3]; after endodontic retreatment with TCA
  radiographic appearance of retreated root (FIG. 8): thicker irregular deformed material that fully fills the root tip
[3]; [5]
  bleeding: lessened bleeding or elimination of bleeding altogether
  cleanliness of apex: cleaner apex
[3]; [6]
  inflammation: less inflammation
  pain: reduced pain
[3]; in vivo
  access of debridement composition to microscopic root canal branches, fins, and anastomoses: improved access
  removal of debris and material from prior endodontic treatment: improved removal of debris
[2]; compared to the gold standard control, sodium hypochlorite
  subjective levels of pain following endodontic treatment compared to control: reduced subjective levels of pain
[2]; patients presenting with necrosis, 6 hours following treatment
  self-reported pain level at 6 hours: 0.5
[2]; patients presenting with necrosis, 24 hours following treatment
  self-reported pain level at 24 hours: 0.25
[2]; patients presenting with necrosis, 48 hours following treatment
  self-reported pain level at 48 hours: 0
[2]; patients presenting with necrosis, 120 hours following treatment
  self-reported pain level at 120 hours: 0
[2]; patients presenting with necrosis, before treatment (baseline)
  self-reported pain level before treatment: 4.5
[2]
  self-assessed pain, 6 hours: 0.7
  self-assessed pain, 24 hours: 0.5
  self-assessed pain, 48 hours: 0.4
  self-assessed pain, 120 hours: 0.2
  self-assessed pain, Before: 3.1
[4]
  pKa: ~0.6
